Columns and labels:
[1] = Inhibition of Trypanosoma brucei recombinant MBP-fused GSK-3 short isoform expressed in Escherichia coli by scintillation proximity assay
Trypanosoma brucei = test: microbe, parasite or virus in culture; assay type: functional, organism-based; conditions: Trypanosoma brucei, 427, 48 h
Description: Antitrypanosomal activity against blood stream form of Trypanosoma brucei 427 assessed as growth inhibition after 48 hrs by alamar blue assay

EC50 (Trypanosoma brucei) | SMILES | IC50 [1]
119 nM | O=C1Nc2ccc3ncsc3c2/C1=C/Nc1ccc(S(=O)(=O)Nc2ccccn2)cc1 | 1 nM
20 nM | Nc1nc(Nc2cccc(S(N)(=O)=O)c2)nn1C(=S)Nc1c(F)cccc1F | 13 nM
50 nM | CN(C)CCCC(=O)Nc1nccc(/C(C#N)=C2\NC(C(C)(C)C)=CS2)n1 | 4 nM
65 nM | CN1CCC(C(=O)Nc2nccc(/C(C#N)=C3\NC(C(C)(C)C)=CS3)n2)CC1 | 30 nM
200 nM | CC(C)(C)C1=CS/C(=C(\C#N)c2ccnc(NC(=O)C3CCNCC3)n2)N1 | 46 nM
410 nM | CC(=O)N1CCC(C(=O)Nc2nccc(/C(C#N)=C3\NC(C(C)(C)C)=CS3)n2)CC1 | 22 nM
458 nM | CN(C)CC(=O)N1CCC(C(=O)Nc2nccc(/C(C#N)=C3\NC(C(C)(C)C)=CS3)n2)CC1 | 30 nM
705 nM | CC(C)(C)C1=CS/C(=C(\C#N)c2ccnc(NCCCCN3C(=O)CCC3=O)n2)N1 | 168 nM
150 nM | N#CCCc1ccc2c(c1)-c1[nH]c3ccc([N+](=O)[O-])cc3c1CC(=O)N2 [ALSTERPAULLONE 2] | 336 nM

SMILES | EC50 (Trypanosoma brucei) | IC50 [1]
O=C1NC(=O)C(c2ccccc2[N+](=O)[O-])=C1Nc1ccc(O)c(Cl)c1 | 740 nM | 1000 nM
COc1ccc2c(c1)/C(=C/c1cnc[nH]1)C(=O)N2 [SU-9516] | 180 nM | 352 nM
